According to US20220380378A1 (ESSA Pharma, Inc., priority 2021, published 2022):
pIC50: −log10 of the molar value.

Target: T1, androgen receptor (AR) (Homo sapiens, UniProt P10275, T878A)
T1 sequence (P10275 1-920 T878A): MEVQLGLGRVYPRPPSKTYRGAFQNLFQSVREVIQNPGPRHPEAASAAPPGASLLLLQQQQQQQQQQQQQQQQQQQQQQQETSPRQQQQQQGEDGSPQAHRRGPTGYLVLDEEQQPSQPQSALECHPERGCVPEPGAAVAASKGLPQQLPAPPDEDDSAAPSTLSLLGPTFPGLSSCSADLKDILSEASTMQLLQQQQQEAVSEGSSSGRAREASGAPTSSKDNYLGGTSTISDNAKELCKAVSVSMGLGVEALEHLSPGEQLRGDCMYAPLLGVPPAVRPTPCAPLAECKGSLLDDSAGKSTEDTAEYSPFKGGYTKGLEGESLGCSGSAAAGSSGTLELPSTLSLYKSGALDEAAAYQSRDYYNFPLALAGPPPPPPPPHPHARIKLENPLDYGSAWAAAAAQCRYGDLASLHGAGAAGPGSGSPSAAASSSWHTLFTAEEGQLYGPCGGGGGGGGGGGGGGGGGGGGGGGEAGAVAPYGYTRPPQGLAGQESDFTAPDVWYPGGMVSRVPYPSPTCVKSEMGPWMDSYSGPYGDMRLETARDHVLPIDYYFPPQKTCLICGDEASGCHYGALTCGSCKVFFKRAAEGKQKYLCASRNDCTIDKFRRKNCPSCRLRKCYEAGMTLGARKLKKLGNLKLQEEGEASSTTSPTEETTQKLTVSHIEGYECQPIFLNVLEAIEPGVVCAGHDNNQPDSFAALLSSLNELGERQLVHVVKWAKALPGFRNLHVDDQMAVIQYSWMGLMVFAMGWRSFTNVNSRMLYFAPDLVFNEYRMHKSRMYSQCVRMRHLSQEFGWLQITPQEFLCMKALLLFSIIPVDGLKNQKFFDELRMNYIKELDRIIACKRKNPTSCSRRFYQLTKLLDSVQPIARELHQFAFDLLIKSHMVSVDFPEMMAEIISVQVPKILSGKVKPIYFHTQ
Test: Androgen-induced PSA (6.1 kb)-luciferase reporter assay in LNCaP cells (R1881 1 nM)
Type: cell-based
Set-up: endogenous in cells; host or cells: LNCaP
Details: 24 h, read-out: PSA-Luc IC50 Range
Experimental: The PSA (6.1 kb)-luciferase reporter contains functional AREs (androgen response elements) to which AR binds in response to androgen to induce luciferase activity. LNCaP cells were transiently transfected with the PSA (6.1 kb)-luciferase reporter for 24 h, and then pretreated with vehicle (DMSO) or indicated concentration of representative compounds for one hour prior to the addition of synthetic androgen, R1881 (1 nM). After 24 h of incubation with R1881, the cells were harvested, and relative luciferase activities were determined (FIG. 1). To determine the IC50, treatments were normalized to vehicle control activity induced by R1881 (Table 2).
Luciferase Assay: Cells were lysed using Passive Lysis Buffer (Promega) and then collected into V-bottom 96-well tissue culture plates. Lysates were centrifuged at 4° C. for 5 minutes at 3000 rpm. To measure luminescence of LNCaP cell lysates the Firefly Luciferase Assay System (Promega) was employed, according to manufacturer's protocol. Relative luminescence units (RLU) in cell lysates were detected for 10 seconds using Promega GloMax-Multi Detection Luminometer (Promega). Values were normalized to protein content. GraphPad Prism graphing software was used to calculate IC50 values.
Statistical analyses were performed using GraphPad Prism (Version 6.01 for Windows; La Jolla, Calif., USA). Comparisons between treatment and control groups were compared using Two-Way ANOVA with post-hoc Dunnett's and Tukey's tests. Differences were considered statistically significant at P values less than 0.05.

Compound | pIC50
CC(NC12CC(NS(C)(=O)=O)(C1)C2)c1ccc2c(ccn2-c2cc(Cl)c(OCCCl)c(C#N)c2)c1 (stereo not shown) [Compound A184] | < 5.70
CC(C)(c1ccc(-c2cnc3c(NS(C)(=O)=O)nccc3c2)cc1)c1cc(Cl)c(OCCCl)c(C#N)c1 [Compound A199] | > 6.30
CS(=O)(=O)N1CCC(Oc2ccc3c(ccn3-c3cc(Cl)c(OCCCl)c(C#N)c3)c2)CC1 [Compound A200] | 5.70 to 6.30
CS(=O)(=O)N1CCCC1COc1ccc2c(ccn2-c2cc(Cl)c(OCCCl)c(C#N)c2)c1 (stereo not shown) [Compound A201] | < 5.70
CS(=O)(=O)N1CCCC(Oc2ccc3c(ccn3-c3cc(Cl)c(OCCCl)c(C#N)c3)c2)CC1 (stereo not shown) [Compound A202] | < 5.70
CC(C)(c1ccc(-c2n[nH]c3nc(NS(C)(=O)=O)ncc23)cc1)c1cc(Cl)c(OCCCl)c(C#N)c1 [Compound A203] | 5.70 to 6.30
CS(=O)(=O)N1CCN(CCOc2ccc3c(ccn3-c3cc(Cl)c(OCCCl)c(C#N)c3)c2)CC1 [Compound A206] | 5.70 to 6.30
CS(=O)(=O)N[C@@H]1CC[C@@H](Oc2ccc3c(ccn3-c3cc(Cl)c(OCCCl)c(C#N)c3)c2)C1 [Compound A207] | 5.70 to 6.30
CS(=O)(=O)NC[C@H]1CC[C@H](COc2ccc3c(ccn3-c3cc(Cl)c(OCCCl)c(C#N)c3)c2)CC1 [Compound A209] | 5.70 to 6.30
CS(=O)(=O)N1CCC(COc2ccc3c(ccn3-c3cc(Cl)c(OCCCl)c(C#N)c3)c2)C1 (stereo not shown) [Compound A210] | 5.70 to 6.30
CC(C)(c1ccc(-c2c[nH]c3c(NS(C)(=O)=O)ncnc23)cc1)c1cc(Cl)c(OCCCl)c(C#N)c1 [Compound A211] | < 5.70
CC(C)(c1ccc(-c2cnc3c(c2)CCC(NS(C)(=O)=O)C3)cc1)c1cc(Cl)c(OCCCl)c(C#N)c1 (stereo not shown) [Compound A214] | 5.70 to 6.30
CS(=O)(=O)Nc1nccc(COc2ccc3c(-c4cc(Cl)c(OCCCl)c(C#N)c4)c[nH]c3c2)n1 [Compound A218] | < 5.70
CS(=O)(=O)N1C[C@H]2C[C@@H](Oc3ccc4c(ccn4-c4cc(Cl)c(OCCCl)c(C#N)c4)c3)C[C@H]2C1 [Compound A221] | 5.70 to 6.30
CS(=O)(=O)N1CCC2(CCC2Oc2ccc3c(ccn3-c3cc(Cl)c(OCCCl)c(C#N)c3)c2)CC1 (stereo not shown) [Compound A222] | 5.70 to 6.30
CS(=O)(=O)NC1(CCOc2ccc3c(ccn3-c3cc(Cl)c(OCCCl)c(C#N)c3)c2)CC1 [Compound A227] | 5.70 to 6.30
CC(C)(c1ccc(-c2ccc3c(c2)OCCN3S(C)(=O)=O)cc1)c1cc(Cl)c(OCCCl)c(C#N)c1 [Compound A228] | < 5.70
CC(C)(c1ccc(-c2ccc3c(c2)OCC(CNS(C)(=O)=O)O3)cc1)c1cc(Cl)c(OCCCl)c(C#N)c1 (stereo not shown) [Compound A230] | < 5.70
CS(=O)(=O)N[C@@H]1CC[C@H](Oc2ccc3c(ccn3-c3cc(Cl)c(OCCCl)c(C#N)c3)c2)C1 [Compound A233] | 5.70 to 6.30
CC(C)(c1ccc(OCc2ccnc(NS(C)(=O)=O)n2)cc1)c1cc(F)c(N2CC3(CCC3)C2)c(C#N)c1 [Compound A240, N-(4-((4-(2-(3-cyano-5-fluoro-4-(2-azaspiro[3.3]heptan-2-yl)phenyl)propan-2-yl)phenoxy)methyl)pyrimidin-2-yl)methanesulfonamide] | < 5.70

Other lines, results leading:

pIC50 | Compound
5.70 to 6.30 | CC(C)(c1ccc(-c2ccc3nc(N)ncc3c2)cc1)c1cc(Cl)c(OCCCl)c(C#N)c1 [Compound A177]
5.70 to 6.30 | CC(C)(c1ccc(OCc2ccnc(NS(C)(=O)=O)n2)cc1)c1cc(Cl)c(OCCCCl)c(C#N)c1 [Compound A181]
5.70 to 6.30 | CS(=O)(=O)Nc1nccc(COc2ccc3c(ccn3-c3cc(Cl)c(OC4CCC4)c(C#N)c3)c2)n1 [Compound A189]
< 5.70 | CS(=O)(=O)N1CCC(CCOc2ccc3c(ccn3-c3cc(Cl)c(OCCCl)c(C#N)c3)c2)CC1 [Compound A190]
5.70 to 6.30 | CC(C)(c1ccc(-c2cnc3nc(NS(C)(=O)=O)ncc3c2)cc1)c1cc(Cl)c(OCCCl)c(C#N)c1 [Compound A192]
< 5.70 | CC(C)(c1ccc(-c2cnc3nc(NS(C)(=O)=O)cnc3c2)cc1)c1cc(Cl)c(OCCCl)c(C#N)c1 [Compound A195]
5.70 to 6.30 | CC(C)(c1ccc(-c2ccc3nc(NS(C)(=O)=O)nc(N4CCOCC4)c3c2)cc1)c1cc(Cl)c(OCCCl)c(C#N)c1 [Compound A196]
< 5.70 | CC(C)(c1ccc(-c2ccc3c(NS(C)(=O)=O)ncnc3c2)cc1)c1cc(Cl)c(OCCCl)c(C#N)c1 [Compound A197]
5.70 to 6.30 | CC(C)(c1ccc(-c2c[nH]c3nc(NS(C)(=O)=O)ncc23)cc1)c1cc(Cl)c(OCCCl)c(C#N)c1 [Compound A198]
< 5.70 | CS(=O)(=O)N1CCC[C@@H](COc2ccc3c(ccn3-c3cc(Cl)c(OCCCl)c(C#N)c3)c2)C1 [Compound A204]
< 5.70 | CS(=O)(=O)N1CCO[C@@H](COc2ccc3c(ccn3-c3cc(Cl)c(OCCCl)c(C#N)c3)c2)C1 [Compound A205]
< 5.70 | CS(=O)(=O)N[C@H]1CC[C@@H](COc2ccc3c(ccn3-c3cc(Cl)c(OCCCl)c(C#N)c3)c2)CC1 [Compound A208]
< 5.70 | CC(C)(c1ccc(-c2cnc3c(c2)CCCC3NS(C)(=O)=O)cc1)c1cc(Cl)c(OCCCl)c(C#N)c1 (stereo not shown) [Compound A216]
5.70 to 6.30 | CC(C)(c1ccc(-c2cnc3nc(NS(C)(=O)=O)cnc3c2)cc1)c1cc(Cl)c(OCCCl)c(C#N)c1 [Compound A219]
< 5.70 | CS(=O)(=O)NC1CCN(CCOc2ccc3c(ccn3-c3cc(Cl)c(OCCCl)c(C#N)c3)c2)CC1 [Compound A220]
5.70 to 6.30 | CS(=O)(=O)N1CC2CC(Oc3ccc4c(ccn4-c4cc(Cl)c(OCCCl)c(C#N)c4)c3)CC2C1 (stereo not shown) [Compound A223]
5.70 to 6.30 | CS(=O)(=O)N1CCC[C@@H]1COc1ccc2c(ccn2-c2cc(Cl)c(OCCCl)c(C#N)c2)c1 [Compound A224]
5.70 to 6.30 | CS(=O)(=O)N1CC(CCOc2ccc3c(ccn3-c3cc(Cl)c(OCCCl)c(C#N)c3)c2)C1 [Compound A225]
5.70 to 6.30 | CS(=O)(=O)N[C@H]1CC[C@@H](Oc2ccc3c(ccn3-c3cc(Cl)c(OCCCl)c(C#N)c3)c2)C1 [Compound A226]
5.70 to 6.30 | CC(C)(c1ccc(-c2cnc3c(c2)OCCN3S(C)(=O)=O)cc1)c1cc(Cl)c(OCCCl)c(C#N)c1 [Compound A229]
< 5.70 | CS(=O)(=O)N1CC2(CCN(Cc3ccc4c(ccn4-c4cc(Cl)c(OCCCl)c(C#N)c4)c3)CC2)C1 [Compound A235]
< 5.70 | CS(=O)(=O)NCC1CCN(Cc2ccc3c(ccn3-c3cc(Cl)c(OCCCl)c(C#N)c3)c2)CC1 [Compound A236]
< 5.70 | CN(C1CCN(Cc2ccc3c(ccn3-c3cc(Cl)c(OCCCl)c(C#N)c3)c2)CC1)S(C)(=O)=O [Compound A237]
< 5.70 | CC1(NS(C)(=O)=O)CCN(Cc2ccc3c(ccn3-c3cc(Cl)c(OCCCl)c(C#N)c3)c2)CC1 [Compound A238]
< 5.70 | CS(=O)(=O)N1CC2(CN(Cc3ccc4c(ccn4-c4cc(Cl)c(OCCCl)c(C#N)c4)c3)C2)C1 [Compound A241, 3-chloro-2-(2-chloroethoxy)-5-(5-((6-(methylsulfonyl)-2,6-diazaspiro[3.3]heptan-2-yl)methyl)-1H-indol-1-yl)benzonitrile]
5.70 to 6.30 | CS(=O)(=O)N[C@H]1CC[C@H](Oc2ccc3c(ccn3-c3cc(Cl)c(OCCCl)c(C#N)c3)c2)CC1 [Compound A242]
